Earlier results as cited in patent publication US20050287214A1, “Squeeze controlled oral dosage form” (priority 2004, published 2005).

Details: solubility of the active agent as stated in the formulation tables; no method given

CNC(=C[N+](=O)[O-])NCCSCc1ccc(CN(C)C)o1 [Ranitidine]
solubility: Ranitidine (solubility = 880 mg/ml)
